Measurements reported in patent publication US9211310B2, “Use of a Chinese medicine composition in preparing medicaments for treating secondary prevention of myocardial infarction” (TASLY PHARMACEUTICAL GROUP CO., LTD, priority 2010, dated 2015).

System: patients after acute myocardial infarction
Assay: Life quality, Seattle Angina Questionnaire (SAQ), same clinical trial
Format: in vivo, human
Source text: 3508 patients who were in accordance with the diagnostic standards of AMI for 28 days to 2 years and differentiated as Qi deficiency and blood stagnation syndrome by TCM were studied. 0.5 g Chinese medicine composition prepared by the method of EXAMPLE 1 (Coded as QSYQ) was administrated half an hour after meal, 3 times per day.
There were 19 questions in the Seattle angina questionnaire (SAQ), including 5 parts: physical limitation (PL), anginal stability (AS), anginal frequency (AF), treatment satisfaction (TS) and disease perception (DP). After being given necessary explanation by doctors, the questions were answered independently by patients.
They included the overall survival time, angina pectoris score, TCM symptom score and life quality score, where angina pectoris score, TCM symptom score and life quality score were evaluated at randomization, in 1st, 3rd, 6th, 9th, 12th month after treatment and 18th month after follow-up.
All evaluation results of SAQ were described during the period of observation, and Wilcoxon rank sum test was used for inter-group comparison.
The evaluation results in the SAQ were depicted in different observations, and inter-group comparison was tested by Wilcoxon Rank-sum test.

## CC(=O)Oc1ccccc1C(=O)O [Control group, aspirine]
Baseline, FAS
  SAQ Question 1-9: Other reasons, % of cases: (5.84%)
  SAQ Question 1-9: Other reasons, cases: 99
  SAQ Question 1-9: Severely limited, % of cases: (47.34%)
  SAQ Question 1-9: Severely limited, cases: 802
  SAQ Question 1-9: Slightly limited, % of cases: (8.56%)
  SAQ Question 1-9: Slightly limited, cases: 145
Baseline, PP
  SAQ 2nd question: Clearly increased, % of cases: (3.09%)
  SAQ 2nd question: Clearly increased, cases: 46
  SAQ 2nd question: Clearly reduced, % of cases: (12.16%)
  SAQ 2nd question: Clearly reduced, cases: 181
  SAQ 2nd question: Same, % of cases: (63.00%)
  SAQ 2nd question: Same, cases: 938
  SAQ 2nd question: Slightly increased, % of cases: (6.72%)
  SAQ 2nd question: Slightly increased, cases: 100
  SAQ 2nd question: Slightly reduced, % of cases: (15.04%)
  SAQ 2nd question: Slightly reduced, cases: 224
  SAQ 3rd question: 1-2 times per week, % of cases: (15.04%)
  SAQ 3rd question: 1-2 times per week, cases: 224
  SAQ 3rd question: 1-3 times per day, % of cases: (6.72%)
  SAQ 3rd question: 1-3 times per day, cases: 100
  SAQ 3rd question: <1 time per week, % of cases: (12.16%)
  SAQ 3rd question: <1 time per week, cases: 181
  SAQ 3rd question: No onset, % of cases: (0.00%)
  SAQ 3rd question: No onset, cases: 0
  SAQ 3rd question: ≧3 times per week, % of cases: (63.00%)
  SAQ 3rd question: ≧3 times per week, cases: 938
  SAQ 3rd question: ≧4 times per day, % of cases: (3.09%)
  SAQ 3rd question: ≧4 times per day, cases: 46
  SAQ Question 1-3: Mildly limited, number of patients: 135
  SAQ Question 1-3: Mildly limited, percent of patients: (9.04%)
  SAQ Question 1-3: Moderately limited, number of patients: 44
  SAQ Question 1-3: Moderately limited, percent of patients: (2.95%)
  SAQ Question 1-3: Not limited, number of patients: 985
  SAQ Question 1-3: Not limited, percent of patients: (65.97%)
  SAQ Question 1-3: Other reasons, number of patients: 10
  SAQ Question 1-3: Other reasons, percent of patients: (0.67%)
  SAQ Question 1-3: Severely limited, number of patients: 12
  SAQ Question 1-3: Severely limited, percent of patients: (0.80%)
  SAQ Question 1-3: Slightly limited, number of patients: 307
  SAQ Question 1-3: Slightly limited, percent of patients: (20.56%)
  SAQ Question 1-4: Mildly limited, number of patients: 347
  SAQ Question 1-4: Mildly limited, percent of patients: (23.30%)
  SAQ Question 1-4: Moderately limited, number of patients: 185
  SAQ Question 1-4: Moderately limited, percent of patients: (12.42%)
  SAQ Question 1-4: Not limited, number of patients: 414
  SAQ Question 1-4: Not limited, percent of patients: (27.80%)
  SAQ Question 1-4: Other reasons, number of patients: 14
  SAQ Question 1-4: Other reasons, percent of patients: (0.94%)
  SAQ Question 1-4: Severely limited, number of patients: 51
  SAQ Question 1-4: Severely limited, percent of patients: (3.43%)
  SAQ Question 1-4: Slightly limited, number of patients: 478
  SAQ Question 1-4: Slightly limited, percent of patients: (32.10%)
  SAQ Question 1-5: Mildly limited, number of patients: 309
  SAQ Question 1-5: Mildly limited, percent of patients: (20.72%)
  SAQ Question 1-5: Moderately limited, number of patients: 210
  SAQ Question 1-5: Moderately limited, percent of patients: (14.08%)
  SAQ Question 1-5: Not limited, number of patients: 473
  SAQ Question 1-5: Not limited, percent of patients: (31.72%)
  SAQ Question 1-5: Other reasons, number of patients: 12
  SAQ Question 1-5: Other reasons, percent of patients: (0.80%)
  SAQ Question 1-5: Severely limited, number of patients: 46
  SAQ Question 1-5: Severely limited, percent of patients: (3.09%)
  SAQ Question 1-5: Slightly limited, number of patients: 441
  SAQ Question 1-5: Slightly limited, percent of patients: (29.58%)
  SAQ Question 1-9: Mildly limited, % of cases: (14.67%)
  SAQ Question 1-9: Mildly limited, cases: 213
  SAQ Question 1-9: Moderately limited, % of cases: (20.73%)
  SAQ Question 1-9: Moderately limited, cases: 301
  SAQ Question 1-9: Not limited, % of cases: (2.27%)
  SAQ Question 1-9: Not limited, cases: 33
  SAQ Question 1-9: Other reasons, % of cases: (6.34%)
  SAQ Question 1-9: Other reasons, cases: 92
  SAQ Question 1-9: Severely limited, % of cases: (48.55%)
  SAQ Question 1-9: Severely limited, cases: 705
  SAQ Question 1-9: Slightly limited, % of cases: (7.44%)
  SAQ Question 1-9: Slightly limited, cases: 108
FAS, 1 month after treatment
  8th question: Dissatisfied, patients (%): (0.34%)
